From US20230123334A1, “AMINO LIPID COMPOUND, PREPARATION METHOD THEREFOR, AND APPLICATION THEREOF” (SHENZHEN SHENXIN BIOTECHNOLOGY CO., LTD., priority 2020, published 2023)

tested on: HEK293 cells; assay: Preliminary screening as mRNA vectors, EGFP mRNA transfection of HEK293 cells; format: cell-based; conditions: EGFP mRNA 50 ng per well, 96-well plates; percentage of GFP fluorescent cells relative to total number of cells (Hoechst)
Procedure, shortened: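 Each well of HEK293 cells received 50 ng of EGFP mRNA. Efficiency was expressed as percent GFP-expressing cells over Hoechst-defined total cell number.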

In order of rising “Absolute mRNA transfection efficiency in HEK293 cells” value:
1. CCCCCCCCCCCCNc1nc(NCCN(C)C)nc(SCCCCCC)n1 [Compound D1S6N12]  0.0%
2. CCCCCCCCCCCCCCCNc1nc(NCCCN2CCN(C)CC2)nc(SCCCCCCCCCCCC)n1 [Compound D9S12N15]  0.0%
3. CCCCCCCCCCCCNc1nc(NCCN2CCOCC2)nc(SCCCCCCCCCCCC)n1 [Compound D2S12N12]  0.0%
4. CCCCCCCCCCCCCCCCCCSc1nc(NCCCCCCCCCCCCCCCC)nc(NCCN2CCN(C)CC2)n1 [Compound D5S18N16]  0.1%
5. CCCCCCNc1nc(NCCN2CCCC2)nc(SCCCCCC)n1 [Compound D3S6N6]  0.1%
6. CCCCCCCCCCCCCCCCNc1nc(NCCN2CCOCC2)nc(SCCCCCCCCCCCCCC)n1 [Compound D2S14N16]  0.1%
7. CCCCCCCCCCSc1nc(NCCCCCC)nc(NCCCN2CCOCC2)n1 [Compound D8S10N6]  0.2%
8. CCCCCCCCCCCCCCCCCCSc1nc(NCCCCCCCCCCCCCCC)nc(NCC2CCN(C)CC2)n1 [Compound D10S18N15]  0.2%
9. CCCCCCCCCCCCCCCCCCNc1nc(NCCCN2CCN(C)CC2)nc(SCCCCCCCCCCCCCC)n1 [Compound D9S14N18]  0.3%
10. CCCCCCNc1nc(NCC2CCN(C)CC2)nc(SCCCCCC)n1 [Compound D10S6N6]  0.3%
11. CCCCCCCCCCCNc1nc(NCCN2CCCCC2)nc(SCCCCCCCC)n1 [Compound D4S8N11]  0.3%
12. CCCCCCCCCCCCCCCCCCSc1nc(NCCCCCCCCCCCCCCC)nc(NCCN(C)C)n1 [Compound D1S18N15]  0.5%
13. CCCCCCCCCCSc1nc(NCCCCCCCCC)nc(NCCN2CCOCC2)n1 [Compound D2S10N9]  0.5%
14. CCCCCCCCCCSc1nc(NCCCCCCC)nc(NCCCN2CCOCC2)n1 [Compound D8S10N7]  0.6%
15. CCCCCCCCCCCCCCCCNc1nc(NCCCN2CCOCC2)nc(SCCCCCC)n1 [Compound D8S6N16]  0.6%
16. CCCCCCCCCCCCCCCCSc1nc(NCCCCCCCCCCCCC)nc(NCCN2CCN(C)CC2)n1 [Compound D5S16N13]  0.7%
17. CCCCCCCNc1nc(NCC2CCN(C)CC2)nc(SCCCCCCC)n1 [Compound D10S7N7]  0.9%
18. CCCCCCCSc1nc(NCCN2CCCCC2)nc(SCCCCCC)n1 [Compound D4S6S7]  1.2%
19. CCCCCCCCNc1nc(NCCCN2CCOCC2)nc(SCCCCCCCC)n1 [Compound D8S8N8]  1.3%
20. CCCCCCCCCCCCCCCCCCSc1nc(NCCCCCCCCCCCCCCC)nc(NCCN2CCCCC2)n1 [Compound D4S18N15]  1.6%
21. CCCCCCCCCCCCCCSc1nc(NCCCCCCCCCCC)nc(NCCCN2CCOCC2)n1 [Compound D8S14N11]  2.0%
22. CCCCCCCCCCCCCCCNc1nc(NCCN2CCCCC2)nc(SCCCCCCCCCCCC)n1 [Compound D4S12N15]  2.0%
23. CCCCCCCCCNc1nc(NCCN2CCN(C)CC2)nc(SCCCCCC)n1 [Compound D5S6N9]  2.0%
24. CCCCCCCCCCCCSc1nc(NCCN2CCCC2)nc(N(CCCCCCCCCCCC)CCCCCCCCCCCC)n1 [D3S12^2N12]  2.2%
25. CCCCCCCCCCCCCCCCSc1nc(NCCCCCCCCCCCCC)nc(NCCN(CC)CC)n1 [Compound D7S16N13]  2.9%
26. CCCCCCCCCCCCCCCCNc1nc(NCC2CCN(C)CC2)nc(SCCCCCCCCCCCCCC)n1 [Compound D10S14N16]  3.0%
27. CCCCCCCCCCCCN(CCCCCCCCCCCC)c1nc(NCCCN(C)C)nc(SCCCCCCCCCCC)n1 [D6S11^2N12]  3.2%
28. CCCCCCCCCCCCSc1nc(NCCCCCCCCCCC)nc(NCCCN2CCN(C)CC2)n1 [Compound D9S12N11]  3.3%
29. CCCCCCCNc1nc(NCCN2CCCCC2)nc(SCCCCCCC)n1 [Compound D4S7N7]  3.4%
30. CCCCCCCCCCCCCCSc1nc(NCCCCCCCCCCC)nc(NCCN2CCCCC2)n1 [Compound D4S14N11]  3.8%
31. CCCCCCCCCCCCCCSc1nc(NCCN(CC)CC)nc(SCCCCCCC)n1 [Compound D7S7S14]  4.1%
32. CCCCCCCCCCCCCCCCCCSc1nc(NCCCCCCCCCCC)nc(NCC2CCN(C)CC2)n1 [Compound D10S18N11]  4.5%
33. CCCCCCCCCNc1nc(NCC2CCN(C)CC2)nc(SCCCCCCC)n1 [Compound D10S7N9]  4.6%
34. CCCCCCCCCCCCCCCSc1nc(NCCCCCCCCCCCC)nc(NCCN(CC)CC)n1 [Compound D7S15N12]  4.7%
35. CCCCCCCCCCCCNc1nc(NCCCN2CCN(C)CC2)nc(SCCCCCC)n1 [Compound D9S6N12]  4.9%
36. CCCCCCCCCCCCCCCNc1nc(NCCN2CCCCC2)nc(SCCCCCCCCC)n1 [Compound D4S9N15]  4.9%
37. CCCCCCCCCCCSc1nc(NCCN2CCCC2)nc(SCCCCCCCC)n1 [Compound D3S8S11]  4.9%
38. CCCCCCCCCCCCNc1nc(NCCCN2CCN(C)CC2)nc(SCCCCCCCCCC)n1 [Compound D9S10N12]  6.0%
39. CCCCCCCCCCCCNc1nc(NCCN2CCCC2)nc(SCCCCCCC)n1 [Compound D3S7N12]  6.5%
40. CCCCCCCCCCCCCCCCCCSc1nc(NCCN2CCCC2)nc(SCCCCCCC)n1 [Compound D3S7S18]  7.9%
41. CCCCCCCCCNc1nc(NCCN2CCOCC2)nc(SCCCCCCCC)n1 [Compound D2S8N9]  8.3%
42. CCCCCCCCCCCCCCSc1nc(NCCN2CCCCC2)nc(SCCCCCCC)n1 [Compound D4S7S14]  8.3%
43. CCCCCCCCCCCCCCCCCCSc1nc(NCCN(CC)CC)nc(SCCCCCC)n1 [Compound D7S6S18]  9.5%
44. CCCCCCCCCNc1nc(NCCN2CCCCC2)nc(SCCCCCCCCC)n1 [Compound D4S9N9]  11.3%
45. CCCCCCCCCCCCCCCNc1nc(NCCN(CC)CC)nc(SCCCCCCCCC)n1 [Compound D7S9N15]  11.7%
46. CCCCCCCCCCCCCCCSc1nc(NCCCCCCCC)nc(NCC2CCN(C)CC2)n1 [Compound D10S15N8]  12.9%
47. CCCCCCCCCCCCCCSc1nc(NCCCCCCCCCCC)nc(NCCN(C)C)n1 [Compound D1S14N11]  14.3%
48. CCCCCCCCCCCCCCCCNc1nc(NCCN2CCCC2)nc(SCCCCCCCCCCC)n1 [Compound D3S11N16]  15.7%
49. CCCCCCCCCCCCCCCSc1nc(NCCCCCCCC)nc(NCCN2CCCC2)n1 [Compound D3S15N8]  17.0%
50. CCCCCCCCCCCCCCCCSc1nc(NCCCCCCCC)nc(NCCN2CCOCC2)n1 [Compound D2S16N8]  19.1%
51. CCCCCCCCCCCCSc1nc(NCCCCCCCCC)nc(NCCCN(C)C)n1 [Compound D6S12N9]  24.0%
52. CCCCCCCSc1nc(NCCCN(C)C)nc(SCCCCCCC)n1 [Compound D6S7S7]  29.3%
53. CCCCCCCCCCCCCCCCCCSc1nc(NCCCCCCCCC)nc(NCCN(C)C)n1 [Compound D1S18N9]  30.3%
54. CCCCCCCCCCSc1nc(NCCN2CCOCC2)nc(SCCCCCCC)n1 [Compound D2S7S10]  32.4%
55. CCCCCCCCCCCCCCCCCCNc1nc(NCCN(C)C)nc(SCCCCCC)n1 [Compound D1S6N18]  32.7%
56. CCCCCCCCSc1nc(NCCN2CCOCC2)nc(SCCCCCCC)n1 [Compound D2S7S8]  35.6%
57. CCCCCCCCCCCCNc1nc(NCCCN(C)C)nc(SCCCCCCCC)n1 [Compound D6S8N12]  46.0%
58. CCCCCCCCCCCCNc1nc(NCCN2CCCC2)nc(SCCCCCCCCC)n1 [Compound D3S9N12]  49.6%
59. CCCCCCCCCCCCCCSc1nc(NCCCCCCCCC)nc(NCC2CCN(C)CC2)n1 [Compound D10S14N9]  54.2%
60. CCCCCCCCCCCCCCCNc1nc(NCCCN(C)C)nc(SCCCCCCCC)n1 [Compound D6S8N15]  55.3%
61. CCCCCCCCCNc1nc(NCCCN2CCN(C)CC2)nc(SCCCCCCCC)n1 [Compound D9S8N9]  57.0%
62. CCCCCCCCCCCCCCCCCCNc1nc(NCCN2CCCC2)nc(SCCCCCCCCCC)n1 [Compound D3S10N18]  59.6%
63. CCCCCCCCCCCCCCSc1nc(NCCCCCC)nc(NCCCN(C)C)n1 [Compound D6S14N6]  59.9%
64. CCCCCCCCCCCCCCCCSc1nc(NCCN2CCN(C)CC2)nc(SCCCCCC)n1 [Compound D5S6S16]  60.5%
65. CCCCCCCCCCCCSc1nc(NCCCN(C)C)nc(SCCCCCCCC)n1 [Compound D6S8S12]  61.9%
66. CCCCCCCCCCCCCCCCCCSc1nc(NCCCCCCC)nc(NCCN2CCN(C)CC2)n1 [Compound D5S18N7]  67.7%
67. CCCCCCCCCCCCCCCCSc1nc(NCCCCCCC)nc(NCCN2CCN(C)CC2)n1 [Compound D5S16N7]  82.6%
